# Test results: EP0326134A1, “4-Amino-2,3-disubstituted-6,7-dihydro-5H-1-pyridine derivatives, process for their preparation and medicaments containing them” (NAUCHNO-ISSLEDOVATELSKY INSTITUT TEKHNOLOGII I BEZOPASNOSTI …, priority 1988, dated 1989)
# Tests used:
# Zahl der Krämpfe = test: Writhing test (intraperitoneal acetic acid); format: in vivo, Mäusen; settings: male mice
# From the text: Die analgetische Wirkung der erfindungsgemäßen Verbindungen wurde an männlichen Mäusen anhand des "Krampf"-Tests (Writhing-Tests) unter intraperitonealer Injizierung von Essigsäure und des Hot-plate-Tests untersucht. Im ersten Falle wurde die analgetische Wirkung der Verbindungen anhand der prozentualen Verringerung der Zahl der Krämpfe ermittelt. Beim zweiten Test wurde die Schwelle der Schmerzempfindlichkeit (Ablecken der Pfoten) bestimmt. Die stärkste analgetische Wirkung der erfindungsgemäßen Verbindungen zeigte sich beim "Krampf"-Test. Dabei übertrafen die Salze der bicyclischen Basen Amyridin, aber nicht alle erfindungsgemäßen Verbindungen waren schwächer als Morphin (s. Tabelle 4).
# [1] = tested on: Calciumchlorid-Arrhythmie-Modells; test: Calcium chloride arrhythmia model (250 mg/kg): ventricular fibrillation, survival; format: in vivo, Ratten; settings: rats, calcium chloride 250 mg/kg
# From the text: (§1) Die antiarrhythmische Wirkung der erfindungsgemäßen Verbindungen wurde in zwei Versuchsserien untersucht, und zwar an isolierten Präparaten des rechten Vorhofs von Kaninchen und mit Hilfe des Calciumchlorid-Arrhythmie-Modells an Ratten. In den Versuchen an den isolierten Präparaten des rechten Vorhofs wurden mit Hilfe von Mikroelektroden die Dauer des AP sowie der Refraktärzeit (R) und die maximale Hemmung (e) und der Parameter (e/R) untersucht, durch den die Anfälligkeit des Myokards gegenüber der Entstehung von Arrhythmien gekennzeichnet wird. In den Versuchen an Ratten wurden diesen Calciumchlorid in einer Dosierung von 250 mg/kg injiziert. Registriert wurden das Vorliegen von Kammerflimmern und die Lebensdauer der Tiere. Sämtliche erfindungsgemäßen Verbindungen üben eine mäßige antiarrhythmische Wirkung aus. Sie steigern die Refraktärzeit des Muskels und des AP um 35 bis 145 % und verringern gleichzeitig die Anfälligkeit des Myokards, ausgedrückt durch den Parameter e/R um 10 bis 80 % (s. Tabelle 4). In bezug auf diese Wirkung waren die Salze der bicyclischen Basen wirksamer als Amyridin. Bezüglich des Vermögens, die Tiere vor Kammerflimmern und vor dem Tod nach Verabreichung von 250 mg/kg Calciumchlorid zu schützen, waren diese Verbindungen ebenfalls am stärksten wirksam. Bei Verwendung des Calciumchlorid-Arrhythmie-Modells waren viele erfindungsgemäßen Verbindungen stärker wirksam als das klassische Antiarrhythmikum Chinidin (s. M.D. Ma s kovskij, Lekarstvennye sredstva, Bd. 1, S. 401, Moskau, Medicina, 1984).
# [2] = tested on: isolierten Präparaten des rechten Vorhofs von Kaninchen; test: Antiarrhythmic effect on isolated right atrium preparations (microelectrodes: AP duration, refractory period R, e/R); settings: isolated right atrium of rabbit, microelectrodes
# From the text: as §1
# [3] = Acute toxicity, single intraperitoneal injection, probit analysis (LD50); format: in vivo, Mäusen; settings: mice, i.p.
# From the text: Ihre akute Toxizität wurde an Mäusen (einmalige intraperitoneale Injektion) nach der Methode der Probit-Analyse nach Zichtfield, Wilcoxon, t949 untersucht. In Tabelle 2 sind die Parameter der akuten Toxizität (LDso) angegeben, die eine mäßige Toxizität der erfindungsgemäßen Verbindungen belegen.
# Orientierungsaktivität = test: Influence on orientation activity; format: in vivo, Mäusen; settings: mice
# From the text: Von Interesse ist der Einfluß der erfindungsgemäßen Verbindungen auf das ZNS und das Verhalten der Tiere. Alle Verbindungen zeigen eine Kombination von stimulierenden und sedativen Eigenschaften und bei höheren Dosen auch eine m-cholinomimetische Wirkung, wobei Tremor, Speichelfluß und Diarrhoe ausgelöst werden.
# [4] = tested on: durch Skopolamin hervorgerufene Amnesie; test: Dark avoidance assay (passive avoidance), scopolamine-induced amnesia; format: in vivo, Mäusen; settings: mice, compound s.c. 5 min before learning, Skopolamin i.p. 30 min before
# Method: Die Mäuse wurden dabei in den hellen Abschnitt der Kammer gegeben, wonach die Latenzzeit für den Übertritt in die dunkle Kammer, in der die Tiere einem Stromschlag von 0,5 mA ausgesetzt waren, registriert wurde. Danach erhöhte sich die Latenzzeit für den Übertritt in den dunklen Abschnitt und verringerte sich die Aufenthaltsdauer. 30 Minuten vor dem Versuch wurden den Mäusen i.p. […] Gedächtnisstörungen hervorrufendes Skopolamin als Cholinblocker injiziert. Die erfindungsgemäßen Verbindungen wurden s.c. 5 Minuten vor dem Lernvorgang injiziert. Das Skopolamin verkürzt die Latenzzeit für den Übertritt in die dunkle Kammer, die erfindungsgemäßen Verbindungen stellen jedoch die Latenzzeitwerte wie bei der Kontrollgruppe wieder her oder bedingen ein geringfügiges Überschreiten dieser Werte (siehe Tabelle 2). Gleichzeitig wird die Aufenthaltsdauer der Tiere im dunklen Abschnitt der Kammer auf 36 bis 45 Hundertstel des Ausgangswerts verringert.
# [5] = tested on: Nerven-Muskel-Präparat von Mäusen (n.peroneus-m.extensor digitorum longus); test: Neuromuscular transmission in isolated nerve-muscle preparation (EPP, minEPP); settings: for Stimulierung der Nerven-Muskelübertragung, in % der Amplitude: EPP: EPP = Endplattenpotential
# From the text: Der Einfluß der Stoffe auf die Nerven-Muskei-Übertragung wurde am isolierten Nerven-Muskel-Präparat von Mäusen (n.peroneus-m.extensor digitorum longus) (s. Bhattacharyya B. et al. "Neuromuscular blocking action of two hemicholinium-3 analogs" Europ. J. Pharmac. 146, 155-165 /1988/) untersucht, das von Lilly-Lösung perfundiert wurde, durch die man ein Gemisch von 02 und C02 leitete. […] Das Endplattenpotential (EPP) und das Endplattenminiaturpotential (minEPP) wurden mit Hilfe eines Magnetografen aufgezeichnet und danach mit dem Computer ausgewertet. Ermittelt wurden die Frequenz (f), die Amplitude (A) und die Dauer (t) der minEPP und der EPP (s. Tabelle 2).
# [6] = Side effects and CNS/behaviour: tremor (TD50), sedative and m-cholinomimetic effects; format: in vivo; settings: for Verhältnis TD50 zu ED50: ED50 = dose blocking the effect of Skopolamin in 50 % of the animals (passive avoidance, mice); for TD50 (Tremor): toxic dose causing tremor in 50 % of the animals
# From the text: Von Interesse ist der Einfluß der erfindungsgemäßen Verbindungen auf das ZNS und das Verhalten der Tiere.
# Wirkung von Hexenal = test: Influence on the effect of Hexenal; format: in vivo, Mäusen; settings: mice
# [7] = target: T1, Acetylcholinesterase menschlicher Erythrozyten (Homo sapiens, UniProt P22303); test: Acetylcholinesterase inhibition, spectrophotometric; format: biochemical; settings: Acetylcholinesteraseinhibierung bei menschlichen Erythrozyten IK, (Mol), human erythrocyte enzyme
# T1 construct: Acetylcholin-esteraseinhi-bierung bei menschlichen Erythrozyten; from tissue; host or cells: human erythrocytes
# From the text: Untersucht wurden die Wirkmechanismen der erfindungsgemäßen Verbindungen: • 1. Die Wirkung auf Acetylcholinesterase menschlicher Erythrozyten auf spektrofotometrischem Wege. • 2.
# Uterus der Ratte = test: Contractile activity of smooth muscle: rat uterus; settings: Rattus norvegicus, read-out: Serotonin 1.10^-6 (Mol): Amplitude, % bezogen auf die Kontrolle, Uterus der Ratte; Konzentration 1.10^-4 Mol; n = 9
# From the text: (§2) In Versuchen an glattmpskulären Organen (Uterus, Samenleiter der Ratte und Krummdarm des Meerschweinchens) wurden die Wirkung der erfindungsgemäßen Verbindungen auf die kontraktile Aktivität der glatten Muskeln und ihre Reaktionen auf den Einfluß von Acetylcholin, Serotonin, Adrenalin und KCI als Agonisten untersucht. Mit Hilfe eines Schreibers wurden die Amplitude und die Dauer der Kontraktion der glatten Muskeln unter Verwendung eines Geräts vom Typ Mechanstron-untersucht.
# Samenleiter der Ratte = test: Contractile activity of smooth muscle: rat vas deferens; settings: Rattus norvegicus, read-out: Adrenalin 1.10^-6: Amplitude, % bezogen auf d.Kontrolle, Samenleiter der Ratte; Konzentration 1.10^-4 Mol; n = 9
# From the text: as §2
# [8] = tested on: K -Durchlässigkeit der Membrane des Ranvier-Schnürringes; test: K+ permeability of the node of Ranvier membrane, voltage clamp; design: species or system Frosches; settings: node of Ranvier, frog sciatic nerve fibres, voltage clamp; concentration giving 50 % block of ion permeability; read-out: Blockierung der K^+-Durchlässigkeit der Membrane Ic50 (Mol)
# From the text: (§3) Untersucht wurden die Wirkmechanismen der erfindungsgemäßen Verbindungen: • 1. Die Wirkung auf Acetylcholinesterase menschlicher Erythrozyten auf spektrofotometrischem Wege. • 2. Die Wirkung auf die K - und Na -Durchlässigkeit der Membrane des Ranvier-Schnürringes (s. Fox T.M. et al. "Modification of ionic membrane currrents of Ranvier nodes by UV-radiation under voltage clamp conditions", Experientia, 27, 1289-1290 /1971/ und Arhom P. et al. "Local anesthetics: effects on permeability properties of nodal membrane in myelynated nerve fibres from xenopus". Acta physiol. Scand. 91, 11-21 /1974/) der Nervenfasern des Hüftnervs des Frosches unter Anwendung der Methode der Messung der Membranspannung (Voltage-clampmethode) (s. Derksen H.E. "Axon membrane voltage fluctuations", Acta Physiol., Pharmacol Neer, 13, 373-466 /1965/).
# (§4) Alle erfindungsgemäßen Verbindungen sind Blocker für die K^+-Durchlässigkeit der Membrane analog dem Amyridin. Die Salze der bicyclischen Basen blockieren jedoch stärker die Na -Durchlässigkeit der Membrane, was sich mit ihren sedativen und analgetischen Eigenschaften in Verbindung bringen läßt.
# [9] = tested on: Na -Durchlässigkeit der Membrane des Ranvier-Schnürringes; test: Na+ permeability of the node of Ranvier membrane, voltage clamp; design: species or system Frosches; settings: node of Ranvier, frog sciatic nerve fibres, voltage clamp; concentration giving 50 % block of ion permeability; read-out: Blockierung der Na^+-Durchlässigkeit der Membrane Ic50 (Mol)
# From the text: as §3, §4
# T1 sequence (P22303 other isoform, or with tags, fused parts or gaps): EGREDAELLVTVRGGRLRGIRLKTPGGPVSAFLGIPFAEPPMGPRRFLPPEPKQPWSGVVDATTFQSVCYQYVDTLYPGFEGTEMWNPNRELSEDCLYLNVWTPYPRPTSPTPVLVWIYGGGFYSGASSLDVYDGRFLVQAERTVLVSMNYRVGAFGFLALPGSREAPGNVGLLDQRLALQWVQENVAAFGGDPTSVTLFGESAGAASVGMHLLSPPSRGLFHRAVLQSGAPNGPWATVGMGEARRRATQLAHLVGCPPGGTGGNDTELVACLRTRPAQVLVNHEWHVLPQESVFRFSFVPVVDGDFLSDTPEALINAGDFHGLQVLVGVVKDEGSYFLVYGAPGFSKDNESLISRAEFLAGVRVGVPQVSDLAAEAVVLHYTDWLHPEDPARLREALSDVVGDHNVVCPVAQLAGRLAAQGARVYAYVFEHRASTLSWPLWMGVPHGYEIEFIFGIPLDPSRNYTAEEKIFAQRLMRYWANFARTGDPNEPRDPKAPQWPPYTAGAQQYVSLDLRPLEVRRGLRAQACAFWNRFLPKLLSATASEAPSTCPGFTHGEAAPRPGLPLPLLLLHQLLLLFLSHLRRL
Structure (SMILES),"Analgetische Wirkung: Abnahme d. Zahl der ""Krämpfe"" bei Mäusen, in % (Zahl der Krämpfe)","Antiarrhythmische Wirkung: Verlängerung d. Lebensdauer von Ratten an Hand des CaCl2-Arrhythmie-Modells, in % [1]","Antiarrhythmische Wirkung: Verlängerung d. Refraktärzeit (R), in % [2]",LD50 [3],"Änderung der Orientierungsaktivität, in % (Orientierungsaktivität)","Einfluß auf das Gedächtnis: Zahl der Tiere in %, bei denen die Skopolaminwirkung aufgehoben wurde [4]","Stimulierung der Nerven-Muskelübertragung, in % der Amplitude: EPP [5]","Stimulierung der Nerven-Muskelübertragung, in % der Amplitude: minEPP [5]",Verhältnis TD50 zu ED50 [6],TD50 (Tremor) [6],"Änderung der Dauer der Seitenlage, in %: Hexenal 60 mg/kg (Wirkung von Hexenal)",Ki [7],activity at 100 µM (Uterus der Ratte),activity at 100 µM (Samenleiter der Ratte),IC50 [8],IC50 [9]
Cc1nc2c(c(N)c1C)CCC2 [Verbindung 9],70%,140%,110%,15 mg/kg,-20%,70%,40%,80%,7,7 mg/kg,+30%,251 nM,–,–,–,–
Cc1nc2c(c(N)c1C)CCC2 [Verbindung 10],60%,180%,120%,15 mg/kg,0%,80%,38%,79%,"7,5",6 mg/kg,0%,123 nM,160%,160%,–,–
"Cc1nc2c(c(N)c1C)CCC2 [Verbindung 12, 4-Amino-2,3-dimethyl-6,7-dihydro-5H-1-pyrindinfumarat]",90%,130%,110%,15 mg/kg,-15%,50%,32%,70%,8,7 mg/kg,+30%,520 nM,–,–,–,–
Cc1nc2c(c(N)c1C)CCC2 [Verbindung 13],60%,100%,120%,18 mg/kg,-10%,65%,35%,72%,"8,5",8 mg/kg,+25%,450 nM,–,–,–,–
Cc1nc2c(c(N)c1C)CCC2 [Verbindung 14],50%,90%,100%,17 mg/kg,-7%,70%,30%,62%,"8,2",9 mg/kg,+15%,350 nM,–,–,–,–
Cc1nc2c(c(N)c1C)CCC2 [Verbindung 15],65%,110%,90%,16 mg/kg,-15%,72%,40%,75%,"6,8",7 mg/kg,+30%,650 nM,–,–,–,–
Cc1nc2c(c(N)c1C)CCC2 [Verbindung 16],50%,70%,80%,21 mg/kg,-10%,75%,42%,78%,"6,6",10 mg/kg,+22%,580 nM,–,–,–,–
CCc1nc2c(c(N)c1C)CCC2 [Verbindung 28],–,–,–,40 mg/kg,–,80%,22%,48%,11,20 mg/kg,–,6100 nM,–,–,120000 nM,150000 nM
